Legend:
Format in all cases: functional
[1] = Growth inhibition of human […] cells assessed as cell growth at 10 uM after 48 hrs by SRB assay; conditions: read-out: Activity
A549 [2] = experiment: Growth inhibition of human A549 cells assessed as cell growth at 10 uM after 48 hrs by SRB assay; conditions: A549, 48 h, read-out: Activity
EKVX = experiment: Growth inhibition of human EKVX cells assessed as cell growth at 10 uM after 48 hrs by SRB assay; conditions: read-out: Activity
NCI-H322M = experiment: Growth inhibition of human NCI-H322M cells assessed as cell growth at 10 uM after 48 hrs by SRB assay; conditions: read-out: Activity
A549 [3] = experiment: Growth inhibition of human A549 cells after 48 hrs by […] growth inhibition assay; conditions: A549, 48 h
NCI-H460 = experiment: Growth inhibition of human NCI-H460 cells after 48 hrs by […] growth inhibition assay; conditions: NCI-H460, 48 h
RXF 393 = experiment: Growth inhibition of human RXF393 cells after 48 hrs by […] growth inhibition assay; conditions: RXF 393, 48 h
SN12C [4] = experiment: Growth inhibition of human SN12C cells after 48 hrs by […] growth inhibition assay
DU-145 [5] = experiment: Growth inhibition of human DU145 cells after 48 hrs by […] growth inhibition assay; conditions: DU-145, 48 h
HCC 2998 = experiment: Growth inhibition of human HCC2998 cells assessed as cell growth at 0.1 uM after 48 hrs by SRB assay; conditions: HCC 2998, 48 h, read-out: Activity
KM12 = experiment: Growth inhibition of human KM12 cells assessed as cell growth at 0.1 uM after 48 hrs by SRB assay; conditions: KM12, 48 h, read-out: Activity
SF-539 = experiment: Growth inhibition of human SF539 cells assessed as cell growth at 0.1 uM after 48 hrs by SRB assay; conditions: SF-539, 48 h, read-out: Activity
SK-MEL-2 = experiment: Growth inhibition of human SK-MEL-2 cells assessed as cell growth at 0.1 uM after 48 hrs by SRB assay; conditions: SK-MEL-2, 48 h, read-out: Activity
OVCAR-4 = experiment: Growth inhibition of human OVCAR4 cells assessed as cell growth at 0.1 uM after 48 hrs by SRB assay; conditions: OVCAR-4, 48 h, read-out: Activity
ACHN = experiment: Growth inhibition of human ACHN cells assessed as cell growth at 0.1 uM after 48 hrs by SRB assay; conditions: read-out: Activity
UO-31 [6] = experiment: Growth inhibition of human UO31 cells assessed as cell growth at 0.1 uM after 48 hrs by SRB assay; conditions: UO-31, 48 h, read-out: Activity
MDA-MB-435 [7] = experiment: Growth inhibition of human MDA-MB-435 cells assessed as cell growth at 0.1 uM after 48 hrs by SRB assay; conditions: MDA-MB-435, 48 h, read-out: Activity
UACC-257 = experiment: Growth inhibition of human UACC257 cells assessed as cell growth at 10 uM after 48 hrs by SRB assay; conditions: UACC-257, 48 h, read-out: Activity
PC-3 = experiment: Growth inhibition of human PC3 cells assessed as cell growth at 10 uM after 48 hrs by SRB assay; conditions: PC-3, 48 h, read-out: Activity
CCRF-CEM = experiment: Growth inhibition of human CCRF-CEM cells assessed as cell growth at 100 uM after 48 hrs by SRB assay; conditions: read-out: Activity
NCI-H23 = experiment: Growth inhibition of human NCI-H23 cells assessed as cell growth at 100 uM after 48 hrs by SRB assay; conditions: NCI-H23, 48 h, read-out: Activity
IGROV-1 [8] = experiment: Growth inhibition of human IGROV1 cells assessed as cell growth at 100 uM after 48 hrs by SRB assay; conditions: IGROV-1, 48 h, read-out: Activity
OVCAR-8 = experiment: Growth inhibition of human OVCAR8 cells assessed as cell growth at 100 uM after 48 hrs by SRB assay; conditions: OVCAR-8, 48 h, read-out: Activity
SN12C [9] = experiment: Growth inhibition of human SN12C cells assessed as cell growth at 100 uM after 48 hrs by SRB assay; conditions: read-out: Activity
NCI/ADR-RES = experiment: Growth inhibition of human NCI/ADR-RES cells assessed as cell growth at 100 uM after 48 hrs by SRB assay; conditions: read-out: Activity
BT-549 [10] = experiment: Growth inhibition of human BT549 cells assessed as cell growth at 100 uM after 48 hrs by SRB assay; conditions: BT-549, 48 h, read-out: Activity
HCT-15 = experiment: Growth inhibition of human HCT15 cells assessed as cell growth at 1 mM after 48 hrs by SRB assay; conditions: HCT-15, 48 h, read-out: Activity
LOX IMVI = experiment: Growth inhibition of human LOXIMVI cells assessed as cell growth at 1 mM after 48 hrs by SRB assay; conditions: read-out: Activity
IGROV-1 [11] = experiment: Growth inhibition of human IGROV1 cells assessed as cell growth at 1 mM after 48 hrs by SRB assay; conditions: IGROV-1, 48 h, read-out: Activity
UO-31 [12] = experiment: Growth inhibition of human UO31 cells assessed as cell growth at 1 mM after 48 hrs by SRB assay; conditions: UO-31, 48 h, read-out: Activity
DU-145 [13] = experiment: Growth inhibition of human DU145 cells assessed as cell growth at 1 mM after 48 hrs by SRB assay; conditions: DU-145, 48 h, read-out: Activity
MDA-MB-435 [14] = experiment: Growth inhibition of human MDA-MB-435 cells assessed as cell growth at 1 mM after 48 hrs by SRB assay; conditions: MDA-MB-435, 48 h, read-out: Activity
BT-549 [15] = experiment: Growth inhibition of human BT549 cells assessed as cell growth at 1 mM after 48 hrs by SRB assay; conditions: BT-549, 48 h, read-out: Activity
HOP-92 = experiment: Growth inhibition of human HOP92 cells assessed as cell growth at 1 uM after 48 hrs by SRB assay; conditions: HOP-92, 48 h, read-out: Activity
M14 = experiment: Growth inhibition of human M14 cells assessed as cell growth at 1 uM after 48 hrs by SRB assay; conditions: M14, 48 h, read-out: Activity
[16] = read-out: LC50 (the source's name)
[17] = read-out: pLC50 (the source's name) (converted)

CNC(=O)NC[C@H]1O[C@@H](n2cnc3c(NC(=O)Nc4ccccc4)ncnc32)[C@H](O[Si](C)(C)C(C)(C)C)[C@@H]1O[Si](C)(C)C(C)(C)C
growth at 10 µM [1]: 98%
growth at 10 µM (A549 [2]): 90%
growth at 10 µM (EKVX): 104%
growth at 10 µM (NCI-H322M): 105%
GI50 (A549 [3]; read-out: GI50): 2.9 µM
CC50 (A549 [3]; [16]): > 100 µM
TGI (A549 [3]; read-out: TGI): 12.8 µM
GI50 (A549 [3]; read-out: pGI50 (converted)): 2.88 µM
CC50 (A549 [3]; [17]): > 100 µM
TGI (A549 [3]; read-out: pTGI (converted)): 12.9 µM
GI50 (NCI-H460; read-out: GI50): 1.72 µM
CC50 (NCI-H460; [16]): 7.11 µM
TGI (NCI-H460; read-out: TGI): 3.49 µM
GI50 (NCI-H460; read-out: pGI50 (converted)): 1.7 µM
CC50 (NCI-H460; [17]): 7.08 µM
TGI (NCI-H460; read-out: pTGI (converted)): 3.47 µM
GI50 (RXF 393; read-out: GI50): 2.14 µM
CC50 (RXF 393; [16]): 7.5 µM
TGI (RXF 393; read-out: TGI): 4.01 µM
GI50 (RXF 393; read-out: pGI50 (converted)): 2.14 µM
CC50 (RXF 393; [17]): 7.41 µM
TGI (RXF 393; read-out: pTGI (converted)): 3.98 µM
GI50 (SN12C [4]; read-out: GI50): 1.81 µM
CC50 (SN12C [4]; [16]): 6.29 µM
TGI (SN12C [4]; read-out: TGI): 3.38 µM
GI50 (SN12C [4]; read-out: pGI50 (converted)): 1.82 µM
CC50 (SN12C [4]; [17]): 6.31 µM
TGI (SN12C [4]; read-out: pTGI (converted)): 3.39 µM
GI50 (DU-145 [5]; read-out: GI50): 2.58 µM
CC50 (DU-145 [5]; [16]): 18.7 µM
TGI (DU-145 [5]; read-out: TGI): 5.71 µM
GI50 (DU-145 [5]; read-out: pGI50 (converted)): 2.57 µM
CC50 (DU-145 [5]; [17]): 18.6 µM
TGI (DU-145 [5]; read-out: pTGI (converted)): 5.75 µM
growth at 0.1 µM (HCC 2998): 100%
growth at 0.1 µM (KM12): 104%
growth at 0.1 µM (SF-539): 100%
growth at 0.1 µM (SK-MEL-2): 108%
growth at 0.1 µM (OVCAR-4): 106%
growth at 0.1 µM (ACHN): 107%
growth at 0.1 µM (UO-31 [6]): 87%
growth at 0.1 µM (MDA-MB-435 [7]): 102%
growth at 10 µM (UACC-257): 104%
growth at 10 µM (PC-3): 83%
growth at 100 µM (CCRF-CEM): 9%
growth at 100 µM (NCI-H23): -5%
growth at 100 µM (IGROV-1 [8]): -12%
growth at 100 µM (OVCAR-8): 13%
growth at 100 µM (SN12C [9]): -87%
growth at 100 µM (NCI/ADR-RES): 10%
growth at 100 µM (BT-549 [10]): -10%
growth at 1000 µM (HCT-15): 6%
growth at 1000 µM (LOX IMVI): -77%
growth at 1000 µM (IGROV-1 [11]): -39%
growth at 1000 µM (UO-31 [12]): -21%
growth at 1000 µM (DU-145 [13]): -89%
growth at 1000 µM (MDA-MB-435 [14]): -10%
growth at 1000 µM (BT-549 [15]): -36%
growth at 1 µM (HOP-92): 80%
growth at 1 µM (M14): 107%

CNC(=O)OC[C@H]1O[C@@H](n2cnc3c(NC(=O)Nc4ccccc4)ncnc32)[C@H](O[Si](C)(C)C(C)(C)C)[C@@H]1O[Si](C)(C)C(C)(C)C
growth at 10 µM [1]: 88.1%
growth at 10 µM (A549 [2]): 80.8%
growth at 10 µM (EKVX): 104%
growth at 10 µM (NCI-H322M): 118%
growth at 10 µM (PC-3): 58.9%

Source: ChEMBL document CHEMBL1681651, “A broad spectrum anticancer nucleoside with selective toxicity against human colon cells in vitro” (2011)
